≈ marks a conversion by molar mass, not a printed value.
Columns and labels:
Assay in all cases: in vitro antibacterial evaluation, MIC by broth dilution
Assay type in all cases: cell-based
Escherichia coli = conditions: 18 hours at 35° C.
Enterococcus sp. = conditions: broth dilution, 18 hours at 35° C.
Outline: (§1)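 Step 1: dilute antibiotic across 64-0.06 μg/mL in Muller-Hinton II […]. Step 2: inoculate at 5×10^5 CFU/mL.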

Staphylococcus sp. = conditions: broth dilution, 18 hours at 35° C.
Outline: as §1

Streptococcus sp. = conditions: broth dilution, 18 hours at 35° C.
Outline: as §1

`CC(c1ccccc1)C1NC(=O)CNC(=O)C(CO)NC(=O)C(C(O)C2CNC(=N)N2C2OC(CO)C(O)C(O)C2O)NC(=O)C(C(O)C2CNC(=N)N2)NC(=O)C(Cc2ccc(OC3OC(CO)C(OC4OC(CO)C(O)C5OC6(CCCCCCCCCCCC6)OC45)C(O)C3O)cc2)NC1=O` (stereo not shown) [Example 210a] was tested, and the “MIC Escherichia coli (ATCC 25922)” value (Escherichia coli) was over 64 µg/mL, the “MIC Escherichia coli (GC 4559)” value (Escherichia coli) was over 64 µg/mL and the “MIC Escherichia coli (GC 4560)” value (Escherichia coli) was 16 µg/mL (≈ 10.9 µM). For the same compound, the “MIC Enterococcus avium (GC 4558)” value (Enterococcus sp.) was 4 µg/mL (≈ 2.71 µM), the “MIC Enterococcus faecalis (ATCC 29212)” value (Enterococcus sp.) was 8 µg/mL (≈ 5.43 µM) and the “MIC Enterococcus faecalis (GC 2242)” value (Enterococcus sp.) was 8 µg/mL (≈ 5.43 µM). For the same compound, the “MIC Enterococcus faecalis (GC 2691)” value (Enterococcus sp.) was 8 µg/mL (≈ 5.43 µM), the “MIC Enterococcus faecalis (GC 3059)” value (Enterococcus sp.) was 8 µg/mL (≈ 5.43 µM) and the “MIC Enterococcus faecalis (GC 4552)” value (Enterococcus sp.) was 8 µg/mL (≈ 5.43 µM). The “MIC Enterococcus faecalis (GC 4553)” value (Enterococcus sp.) was 8 µg/mL (≈ 5.43 µM), the “MIC Enterococcus faecalis (GC 4554)” value (Enterococcus sp.) was 8 µg/mL (≈ 5.43 µM) and the “MIC Enterococcus faecalis (GC 6189)” value (Enterococcus sp.) was 8 µg/mL (≈ 5.43 µM). For the same compound, the “MIC Enterococcus faecium (GC 2243)” value (Enterococcus sp.) was 4 µg/mL (≈ 2.71 µM), the “MIC Enterococcus faecium (GC 4556)” value (Enterococcus sp.) was 8 µg/mL (≈ 5.43 µM) and the “MIC Enterococcus faecium (GC 4557)” value (Enterococcus sp.) was 4 µg/mL (≈ 2.71 µM). For the same compound, the “MIC Enterococcus faecalis (ATCC 29212)” value (Enterococcus sp.; inoculum 5×10^5 CFU/mL, strain ATCC 29212) was 8 µg/mL (≈ 5.43 µM), the “MIC Enterococcus faecalis (GC 2242)” value (Enterococcus sp.; inoculum 5×10^5 CFU/mL, strain GC 2242) was 8 µg/mL (≈ 5.43 µM) and the “MIC Enterococcus faecium (GC 2243)” value (Enterococcus sp.; inoculum 5×10^5 CFU/mL, strain GC 2243) was 4 µg/mL (≈ 2.71 µM). The “MIC Enterococcus faecalis (GC 2691)” value (Enterococcus sp.; inoculum 5×10^5 CFU/mL, strain GC 2691) was 8 µg/mL (≈ 5.43 µM), the “MIC Enterococcus faecalis (GC 3059)” value (Enterococcus sp.; inoculum 5×10^5 CFU/mL, strain GC 3059) was 8 µg/mL (≈ 5.43 µM) and the “MIC Enterococcus faecalis (GC 4552)” value (Enterococcus sp.; inoculum 5×10^5 CFU/mL, strain GC 4552) was 8 µg/mL (≈ 5.43 µM). The “MIC Enterococcus faecalis (GC 4553)” value (Enterococcus sp.; inoculum 5×10^5 CFU/mL, strain GC 4553) was 8 µg/mL (≈ 5.43 µM), the “MIC Enterococcus faecalis (GC 4554)” value (Enterococcus sp.; inoculum 5×10^5 CFU/mL, strain GC 4554) was 8 µg/mL (≈ 5.43 µM) and the “MIC Enterococcus faecium (GC 4556)” value (Enterococcus sp.; inoculum 5×10^5 CFU/mL, strain GC 4556) was 8 µg/mL (≈ 5.43 µM). The “MIC Enterococcus faecium (GC 4557)” value (Enterococcus sp.; inoculum 5×10^5 CFU/mL, strain GC 4557) was 4 µg/mL (≈ 2.71 µM), the “MIC Enterococcus avium (GC 4558)” value (Enterococcus sp.; inoculum 5×10^5 CFU/mL, strain GC 4558) was 4 µg/mL (≈ 2.71 µM) and the “MIC Enterococcus faecalis (GC 6189)” value (Enterococcus sp.; inoculum 5×10^5 CFU/mL, strain GC 6189) was 8 µg/mL (≈ 5.43 µM). For the same compound, the “MIC Staphylococcus aureus (ATCC 29213)” value (Staphylococcus sp.; strain ATCC 29213) was 4 µg/mL (≈ 2.71 µM), the “MIC Staphylococcus aureus (GC 1131)” value (Staphylococcus sp.; strain GC 1131) was 4 µg/mL (≈ 2.71 µM) and the “MIC Staphylococcus aureus (GC 3051)” value (Staphylococcus sp.; strain GC 3051) was 8 µg/mL (≈ 5.43 µM). The “MIC Staphylococcus aureus (GC 3053)” value (Staphylococcus sp.; strain GC 3053) was 4 µg/mL (≈ 2.71 µM), the “MIC Staphylococcus aureus (GC 4541)” value (Staphylococcus sp.; strain GC 4541) was 4 µg/mL (≈ 2.71 µM) and the “MIC Staphylococcus aureus (GC 4542)” value (Staphylococcus sp.; strain GC 4542) was 8 µg/mL (≈ 5.43 µM). The “MIC Staphylococcus aureus-SMITH (GC 4543)” value (Staphylococcus sp.; strain GC 4543) was 4 µg/mL (≈ 2.71 µM), the “MIC Staphylococcus aureus (GC 4544)” value (Staphylococcus sp.; strain GC 4544) was 8 µg/mL (≈ 5.43 µM) and the “MIC Staphylococcus aureus (GC 4545)” value (Staphylococcus sp.; strain GC 4545) was 4 µg/mL (≈ 2.71 µM). For the same compound, the “MIC Staphylococcus haemolyticus (GC 4546)” value (Staphylococcus sp.; strain GC 4546) was 8 µg/mL (≈ 5.43 µM), the “MIC Coagulase Negative Staphylococcus (GC 4547)” value (Staphylococcus sp.; strain GC 4547) was 4 µg/mL (≈ 2.71 µM) and the “MIC Coagulase Negative Staphylococcus (GC 4548)” value (Staphylococcus sp.; strain GC 4548) was 4 µg/mL (≈ 2.71 µM). For the same compound, the “MIC Coagulase Negative Staphylococcus (GC 4549)” value (Staphylococcus sp.; strain GC 4549) was 2 µg/mL (≈ 1.36 µM), the “MIC Coagulase Negative Staphylococcus (GC 4551)” value (Staphylococcus sp.; strain GC 4551) was 4 µg/mL (≈ 2.71 µM) and the “MIC Coagulase Negative Staphylococcus (GC 6257)” value (Staphylococcus sp.; strain GC 6257) was 4 µg/mL (≈ 2.71 µM). For the same compound, the “MIC Streptococcus agalactiae (GC 4564)” value (Streptococcus sp.) was 2 µg/mL (≈ 1.36 µM), the “MIC Streptococcus pneumoniae (ATCC 6301)” value (Streptococcus sp.) was 0.5 µg/mL (≈ 0.339 µM) and the “MIC Streptococcus pneumoniae (GC 1894)” value (Streptococcus sp.) was under 0.06 µg/mL. For the same compound, the “MIC Streptococcus pneumoniae (GC 4565)” value (Streptococcus sp.) was 0.25 µg/mL (≈ 0.17 µM), the “MIC Streptococcus pyogenes (GC 4563)” value (Streptococcus sp.) was 1 µg/mL (≈ 0.679 µM) and the “MIC Streptococcus pneumoniae (ATCC 6301)” value (Streptococcus sp.; inoculum 5×10^5 CFU/mL, strain ATCC 6301) was 0.5 µg/mL (≈ 0.339 µM). For the same compound, the “MIC Streptococcus pneumoniae (GC 1894)” value (Streptococcus sp.; inoculum 5×10^5 CFU/mL, strain GC 1894) was under 0.06 µg/mL, the “MIC Streptococcus pyogenes (GC 4563)” value (Streptococcus sp.; inoculum 5×10^5 CFU/mL, strain GC 4563) was 1 µg/mL (≈ 0.679 µM) and the “MIC Streptococcus agalactiae (GC 4564)” value (Streptococcus sp.; inoculum 5×10^5 CFU/mL, strain GC 4564) was 2 µg/mL (≈ 1.36 µM). The “MIC Streptococcus pneumoniae (GC 4565)” value (Streptococcus sp.; inoculum 5×10^5 CFU/mL, strain GC 4565) was 0.25 µg/mL (≈ 0.17 µM).

From patent publication US6914045B2, “Glycopeptide antibiotics” (Wyeth Holdings Corporation, priority 2001, dated 2005)
